Measurements: patent publication US20130326728A1, “AGENTS FOR INCREASED RESISTANCE AGAINST OXIDATIVE STRESS CONDITIONS” (KATHOLIEKE UNIVERSITEIT LEUVEN, priority 2010, published 2013)
Entries after “also recorded” stand apart in the source; their conditions may differ.

Assays:
[1] = tested on: peroxide-induced ROS in yeast; assay: ROS accumulation assay (H2DCFDA) in peroxide-treated yeast with exogenous OSIP; format: cell-based; details: 500 μM peptide, compared to mock treatment
Procedure: (§1) ROS, after H2O2 treatment in the absence or presence of 500 μM OSIP, were determined using 2,7-dichlorodihydrofluorescein diacetate (H2DCFDA) staining as described previously (24). Survival of WT yeast in PBS following H2O2 treatment in the absence or presence of 500 μM OSIP was assessed as described (25).
(§2) The effect of OSIP108 on endogenous ROS levels induced by peroxide in yeast were evaluated. Peroxide-induced ROS in yeast in the absence and presence of OSIP108 were measured using 2,7-dichlorodihydrofluorescein diacetate (H2DCFDA) (FIG. 3A). […] Moreover, we found the survival of peroxide-treated yeast cells (5 mM) to increase 27-fold upon incubation with 500 μM OSIP108 (FIG. 3B).

[2] = tested on: WT yeast; assay: Survival assay of peroxide-treated WT yeast with exogenous OSIP; format: cell-based; details: for effect on survival of yeast cells after treatment with peroxide (in words): exogenous addition of the peptides
Procedure: as §1, §2

[3] = tested on: Saccharomyces cerevisiae strain BY4741; assay: Halo test of H2O2 tolerance of OSIP-overexpressing yeast; format: cell-based; details: 15 μL of 240 mM H2O2, galactose vs glucose agar, 48 h at 30° C.; versus negative controls
Procedure: Resistance of the selected yeast transformants and the two positive control transformants against oxidative stress induced by H2O2 was additionally assayed in a halo test, by spotting 15 μL of 240 mM H2O2 on SC-ura agar, containing either glucose or galactose, and inoculated with 1/200 of overnight yeast culture as described previously (23). After 48 h of incubation at 30° C., diameters of the halos were measured.
The halo-test comprises a predefined but continuous concentration gradient of H2O2, applied to inoculated agar plates. Upon incubation, circles (halos) of growth inhibition are visible. By comparing the diameter of the halos of plates with yeast grown on glucose (not allowing for expression of the OSIP) and galactose (inducing overexpression of the OSIP) the effect of the OSIP on oxidative stress tolerance was quantified.

[4] = tested on: yeast BY4741; assay: Yeast growth inhibition by apoptosis-inducing compounds (OD600) with or without OSIP108; format: cell-based, Saccharomyces cerevisiae
Procedure: Yeast growth was monitored upon treatment with different apoptosis-inducing compounds in the presence (black bars) or absence (white bars) of 200 μM OSIP108. Percentage growth was calculated as the ratio of the OD600 of the treated culture over an unstressed yeast culture after 10 h (A) or 48 h (B) of incubation.
In this respect, in parallel with mitochondrial copper toxicity, the use of the other mitochondrial toxins, in casu valproic acid, tunicamycin, doxycyclin and cisplatin, expand the range of causes of mitochondrial dysfunction and help find a broader basis for compounds rescuing mitochondrial dysfunction. Optical density (OD600) of yeast BY4741 was monitored upon treatment with different apoptosis-inducing compounds in the presence or absence of 200 μM OSIP108. OSIP108 and apoptosis-inducers were added simultaneously to the yeast cells. Percentage growth was calculated as the ratio of the OD600 of the treated culture over an unstressed yeast culture after 10 h or 48 h of incubation. […] Also, OSIP108 but not OSIP(C3A) can rescue copper- and cisplatin-induced growth inhibition of yeast

[5] = tested on: human hepatoma cell line HepG2; assay: HepG2 cell viability (MTT) in presence of copper or cisplatin; format: cell-based
Procedure: The mean and SE of three experiments is shown. No: viability of cells without addition of peptide; OSIP: OSIP108 was added simultaneously added to cells together with Cu; OSIP pre, cells were preincubated with OSIP108 for 12 h prior to addition of Cu.
The human hepatoma cell line HepG2 which naturally expresses hATP7B was incubated with 100 μM of peptide OSIP108. The viability of cells was determined after 48 h exposure to toxic copper concentrations of 0.75 mM by MTT assay. The viability was calculated relative to cells that receive no copper (100%).

[6] = tested on: Col-0 A. thaliana plants; assay: Paraquat lesion diameter on A. thaliana leaves infiltrated with OSIP108; format: in vivo, Arabidopsis thaliana; details: three days after paraquat (5 μl, 100 μM); leaf infiltrated with 100 μM OSIP108 24 h before; control 4.45±1.37 mm
Procedure: At least twelve soil grown, 4 week old Col-0 A. thaliana plants, were used in which one leaf of each plant was syringe-infiltrated with 100 μM OSIP108 dissolved in 1% dimethyl sulphoxide (DMSO). At least 12 control plants were mock treated with 1% DMSO only. After 24 h incubation in the growth chamber, the plants were inoculated with a drop of 5 μl paraquat (100 μM). The lesion diameters caused by the paraquat treatment were measured and compared 2 and 3 days after the treatment.

[7] = tested on: CHO cell lines expressing ATP7b mutant H1069Q; assay: Viability (MTT) of CHO cells expressing ATP7b mutant H1069Q under toxic copper; format: cell-based; details: 100 μM OSIP108, 0.75 mM copper, 48 h
Procedure: (§3) No: viability of cells without addition of peptide; OSIP: OSIP108 was added simultaneously added to cells together with Cu; and OSIP pre: cells were preincubated with the peptide for 12 h prior to addition of Cu.
(§4) CHO cell lines expressing either ATP7b or ATP7b mutant H1069Q (a mutation frequently found in patients having Wilson's Disease) were incubated with OSIP108 (100 μM). The viability of cells was determined after 48 h exposure to toxic copper concentrations of 0.75 mM by MTT assay and calculated relative to cells that receive no copper (100%).

[8] = tested on: yeast Δccc2 mutant; assay: Exogenous OSIP108 on yeast Δccc2 mutant at lethal copper dose (MTT viability dye halo, ROS); format: cell-based; details: exogenous addition
Procedure: This was tested by spotting 5 μL of 10 mM OSIP108 onto agar plates containing a yeast Δccc2 mutant, 500 μM CuSO4 and a viability dye based on MTT. Plates were incubated for 24 h and placed at 4° C. for 2 days. Blue halos were indicative of surviving yeast cells.

[9] = tested on: CHO cell lines expressing ATP7b; assay: Viability (MTT) of CHO cells expressing ATP7b under toxic copper; format: cell-based; details: 100 μM OSIP108, 0.75 mM copper, 48 h
Procedure: as §3, §4

[10] = tested on: yeast Δccc2 mutant; assay: Copper-induced growth inhibition of yeast Δccc2 mutant overexpressing the OSIP108 gene; format: cell-based; details: overexpression of the gene encoding OSIP108
Description: Copper ions are known to induce apoptosis of hepatocytes, one of the underlying mechanisms of copper-induced toxicity in Wilson's Disease (WD). WD is caused by mutations in the ATPase ATP7b.

Sequence	peroxide-induced endogenous ROS (DCF fluorescence intensity) [1]	effect on survival of yeast cells after treatment with peroxide (in words) [2]	halo test: average difference in halo diameter / tolerance to H2O2 [3]	rescue of copper- and cisplatin-induced growth inhibition of yeast [4]	yeast growth in presence of cisplatin ([4]; 200 uM OSIP108, 250 and 125 μM cisplatin, compared to control treatment)	rescue of yeast growth inhibition by other apoptosis-inducers ([4]; 200 μM OSIP108, apoptosis-inducers other than cisplatin)	copper resistance of HepG2 (viability) ([5]; FIG. 5, 100 μM OSIP108, 0.75 mM copper, 48 h, MTT)	survival of HepG2 cells in the presence of copper or cisplatin ([5]; pre-incubation with peptide)	average lesion diameter [6] [mm]	copper resistance / viability of CHO cells expressing ATP7b mutant H1069Q [7]	copper-induced accumulation of reactive oxygen species (ROS) in Δccc2 mutant [8]	viability of the Δccc2 yeast mutant ([8]; in presence of copper)	survival of Δccc2 yeast mutant at lethal copper dose ([8]; 5 μL of 10 mM OSIP108 spotted, 500 μM CuSO4)	copper resistance / viability of CHO cells expressing ATP7b [9]	increase of survival of peroxide-treated yeast cells ([2]; 5 mM peroxide, 500 μM OSIP108) [fold]	copper-induced growth inhibition of Δccc2 mutant [10]
MIIINNDNYLLLFYNNN (listed as Arabidopsis thaliana) [SIP14—1]	decrease in the amount of endogenous ROS	less effect than SIP108	significant enhanced tolerance	–	–	–	–	–	–	–	–	–	–	–	–	–
MIIIYYCFIIIIN (listed as Arabidopsis thaliana) [SIP14—2]	decrease in the amount of endogenous ROS	less effect than SIP108	significant enhanced tolerance	–	–	–	–	–	–	–	–	–	–	–	–	–
MLCVLQGLRE (listed as Arabidopsis thaliana) [OSIP108]	significantly lower	–	significantly lower	can rescue	significant increase in growth	fails to rescue	significantly enhances copper resistance	increased survival	2.18±1.60	enhanced the copper resistance; also recorded: significantly enhances copper resistance	reduced	increased viability	induces survival	enhanced the copper resistance; also recorded: significantly enhances copper resistance	27	could alleviate copper-induced growth inhibition
MLMYRMRSGAN (listed as Arabidopsis thaliana) [SIP11]	decrease in the amount of endogenous ROS	less effect than SIP108	significant enhanced tolerance	–	–	–	–	–	–	–	–	–	–	–	–	–
